Two molecules from article doi:10.1101/2025.08.01.667454v3 (biorxiv, 2025) can be followed below.

Test [1] has as its target T1, BAF60A^YLD+SWIB (Homo sapiens, UniProt Q96GM5). The test can be described thus: SPR steady state, amine-coupled protein. In kind it is binding.
In test [2] the target is T1, BAF60A^YLD+SWIB. The test can be described thus: fluorescence polarization competition with PU.[…]. Type of test: binding. (Fluorescence polarisation rises when a labelled molecule tumbles more slowly, as on binding a larger partner.)

Molecules are shown by their SMILES.

By Kd is commonly meant the concentration at which binding is half-saturated. A low value points to higher affinity. What is called IC50 is the concentration needed to halve the response being measured. High values mean weaker potency, low ones greater potency. On to `CC1=C(C(=O)Nc2cccc(C)n2)C(c2cccc(Br)c2)C2=C(CCCC2=O)N1` (stereo not shown) [PPSC-001], for which, on BAF60A^YLD+SWIB [1], the Kd was found to be 8.89 µM. Moreover, the half-inhibitory concentration (IC50) on BAF60A^YLD+SWIB [2] worked out at 9.13 µM.

In turn, `COC(=O)c1ccc(Cn2c(C)nc3cc4c(cc32)OCCO4)cc1` [PPSC-002] displayed a Kd on BAF60A^YLD+SWIB [1] of 22.6 µM. The molecule further had an IC50 on BAF60A^YLD+SWIB [2] of 33 µM.
